Results from paper PMC8962522, “Direct interaction of TrkA/CD44v3 is essential for NGF-promoted aggressiveness of breast cancer cells” (Journal of Experimental & Clinical Cancer Research : CR, 2022).
Entries after “also recorded” stand apart in the source; their conditions may differ.

Tested on: CD44v3
Assay: MST binding of P4 to CD44v3
Settings: Supplementary Fig. 6C, listed as P4
Procedure: MST was conducted using an NT.115 A Pico MST instrument (Nano Temper Technologies GmbH) equipped with red and blue filter sets. The TrkA-His tagged extracellular domain protein (Ala 34-Gly423) (9966-TK-050; R&D Systems, United Kingdom), diluted to 200 nM in PBS-T buffer (supplied by the vendor), was labeled using a Monolith His-Tag Labeling Kit with RED-Tris-NTA (Nano Temper). The RED-Tris-NTA dye was diluted in PBS-T to 100 nM. The mix was incubated at RT in the dark for 30 min. Next, an extract expressing CD44v3-labeled protein (CD44v3-His) and ligand and/or TrkA was mixed at a 1:1 ratio and incubated at RT in the dark for 15 min. For the binding check, peptides and TrkA-His were used. […] The data were analyzed using MO Control Software (Nano Temper).
To block the TrkA-CD44v3 association, 4 mimetic peptides of CD44v3 were designed corresponding to zone 1 [(K) STSSNTISAG], zone 2 (WEPNEENEDE), zone 3 (RDRHLSFSGSG) and zone 4 (IDDDEDFISST) (Fig. 2F & G). The binding capacities of the CD44v3 mimetic peptides to TrkA were then measured by MST (Fig. 2H). […] To confirm mimetic peptide 4 binding, we assessed its ability to bind TrkA using nanoscale differential scanning fluorimetry (nanoDSF; Supplementary Fig. 6A & B).
Supplementary file 13046_2022_2314_MOESM3_ESM.pdf: Additional file 3: Supplementary Figure 1. […] CD44v3 and CD44v6 levels at the plasma membrane were assessed by flow cytometry (A-D). […]

## IDDDEDFISST [Peptide 4, mimetic peptide 4 (…) corresponding to the C-terminal region of CD44v3]
  binding to CD44v3 (in words): we did not detect CD44v3/P4 binding; also recorded: binds to TrkA but not to CD44v3
